This note sets out measurements from patent US7511065B2, “Mixed lineage kinase modulators” (Eli Lilly and Company, priority 2002, dated 2009).

SMILES strings stand for the structures.

T1 sequence (Q9NYL2 1-455 isoform Q9NYL2-2): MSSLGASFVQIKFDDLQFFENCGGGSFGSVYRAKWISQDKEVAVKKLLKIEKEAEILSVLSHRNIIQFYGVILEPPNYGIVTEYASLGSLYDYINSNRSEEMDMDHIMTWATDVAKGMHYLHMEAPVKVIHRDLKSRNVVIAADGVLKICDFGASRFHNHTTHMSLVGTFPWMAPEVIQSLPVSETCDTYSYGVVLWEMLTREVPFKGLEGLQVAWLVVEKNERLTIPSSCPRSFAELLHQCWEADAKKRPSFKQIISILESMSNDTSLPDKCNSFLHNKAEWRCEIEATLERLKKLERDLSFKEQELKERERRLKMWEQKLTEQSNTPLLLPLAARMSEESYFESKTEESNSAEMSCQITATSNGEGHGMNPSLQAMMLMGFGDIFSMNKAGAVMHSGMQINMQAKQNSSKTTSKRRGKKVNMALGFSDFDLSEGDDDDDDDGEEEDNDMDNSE

The experiment concerns the target T1, MLK-7 (Homo sapiens, UniProt Q9NYL2).
T1 construct: GST; His tag; made in house; host or cells: Sf9 insect cells (baculovirus, pVL1392)
As to the kind of experiment: In vitro assay of purified MLK-7 kinase activity (33P transfer from ATP to myelin basic protein). The experiment is classed as biochemical. The following applies: recombinant GST-tagged MLK-7 at 1 nm, 30 uM ATP, 5 uM MBP substrate, 2 hours room temperature; read-out: MLK7 IC50. The procedure, abridged:
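GST/His-tagged MLK-7 from Sf9 (baculovirus), 1 nM, with 5 uM MBP, 30 uM ATP plus 33P, 5 mM MgCl2, 2 mM DTT, 4% DMSO in 44 mM HEPES pH 7.4; 2 h at room temperature, stopped with phosphoric acid. Filter-bound 33P counted; IC50 for reduced phosphate transfer, Ki via Cheng-Prusoff.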
Usually IC50 stands for the concentration that gives 50% inhibition. With `Nc1ccc(-c2ccc3c(-c4c(-c5ccccn5)nn5c4CCC5)ccnc3c2)cc1Cl` [Example 90, 2-Chloro-4-[4-(2-pyridin-2-yl-5,6-dihydro-4H-pyrrolo[1,2-b]pyrazol-3-yl)-quinolin-7-yl]-phenylamine Ditrifluoroacetic Acid], the half-inhibitory concentration (IC50) was at most 100 nM. For `Oc1c(F)cc(-c2ccc3c(-c4c(-c5ccccn5)nn5c4CCC5)ccnc3c2)cc1Cl` [Example 91, 2-Chloro-6-fluoro-4-[4-(2-pyridin-2-yl-5,6-dihydro-4H-pyrrolo[1,2-b]pyrazol-3-yl)-quinolin-7-yl]-phenol Trifluoroacetic Acid], the 50% inhibitory concentration (IC50) is at most 100 nM. With `NS(=O)(=O)c1ccc(-c2ccc3c(-c4c(-c5ccccn5)nn5c4CCC5)ccnc3c2)s1` [Example 92, 5-[4-(2-Pyridin-2-yl-5,6-dihydro-4H-pyrrolo[1,2-b]pyrazol-3-yl)-quinolin-7-yl]-thiophene-2-sulfonic acid amide Trifluoroacetic Acid] the figure was at most 100 nM. As for `Oc1cc(-c2ccc3c(-c4c(-c5ccccn5)nn5c4CCC5)ccnc3c2)cc(F)c1F` [Example 93, 2,3-Difluoro-5-[4-(2-pyridin-2-yl-5,6-dihydro-4H-pyrrolo[1,2-b]pyrazol-3-yl)-quinolin-7-yl]-phenol Trifluoroacetic Acid], the IC50 is at most 100 nM. In the case of `Nc1nc2ccc(-c3ccc4c(-c5c(-c6ccccn6)nn6c5CCC6)ccnc4c3)cc2s1` [Example 94, 6-[4-(2-Pyridin-2-yl-5,6-dihydro-4H-pyrrolo[1,2-b]pyrazol-3-yl)-quinolin-7-yl]-benzothiazol-2-yl amine Tris trifluoroacetic Acid], the IC50 was at most 100 nM. For `NS(=O)(=O)c1ccc(-c2ccc3c(-c4c(-c5ccccn5)nn5c4CCC5)ccnc3c2)cc1` [Example 95, 4-[4-(2-Pyridin-2-yl-5,6-dihydro-4H-pyrrolo[1,2-b]pyrazol-3-yl)-quinolin-7-yl]-benzenesulfonamide] the value was at most 100 nM; for `NS(=O)(=O)c1cccc(-c2ccc3c(-c4c(-c5ccccn5)nn5c4CCC5)ccnc3c2)c1` [Example 96, 3-[4-(2-Pyridin-2-yl-5,6-dihydro-4H-pyrrolo[1,2-b]pyrazol-3-yl)-quinolin-7-yl]-benzenesulfonamide], at most 100 nM; for `NS(=O)(=O)c1ccccc1-c1ccc2c(-c3c(-c4ccccn4)nn4c3CCC4)ccnc2c1` [Example 97, 2-[4-(2-Pyridin-2-yl-5,6-dihydro-4H-pyrrolo[1,2-b]pyrazol-3-yl)-quinolin-7-yl]-benzenesulfonamide], at most 1000 nM. With `c1ccc(-c2nn3c(c2-c2ccnc4cc(-n5ccnc5)ccc24)CCC3)nc1` [Example 98, 7-Imidazol-1-yl-4-(2-pyridin-2-yl-5,6-dihydro-4H-pyrrolo[1,2-b]pyrazol-3-yl)quinoline Ditrifluoroacetic Acid], the half-inhibitory concentration (IC50) was at most 1000 nM. `c1ccc(-c2nn3c(c2-c2ccnc4cc(-n5cncn5)ccc24)CCC3)nc1` [Example 99, 4-(2-Pyridin-2-yl-5,6-dihydro-4H-pyrrolo[1,2-b]pyrazol-3-yl)-7-[1,2,4]triazol-1-yl-quinoline ditrifluoroacetic Acid]: the IC50 was at most 1000 nM. For `c1ccc(-c2nn3c(c2-c2ccnc4cc(-n5cccn5)ccc24)CCC3)nc1` [Example 100, 7-Pyrazol-1-yl-4-(2-pyridin-2-yl-5,6-dihydro-4H-pyrrolo[1,2-b]pyrazol-3-yl)quinoline Trifluoroacetic Acid] the value was at most 100 nM; for `c1ccc(-c2nn3c(c2-c2ccnc4cc(-n5ccnn5)ccc24)CCC3)nc1` [Example 101, 4-(2-pyridin-2-yl-5,6-dihydro-4H-pyrrolo[1,2-b]pyrazol-3-yl-)-7-[1,2,3]triazol-1-yl-quinoline ditrifluoroacetic Acid], at most 1000 nM; for `CC(C)(C)OC(=O)N1CCN(c2ccc3c(-c4c(-c5ccccn5)nn5c4CCC5)ccnc3c2)CC1` [Example 102, 4-[4-(2-Pyridin-2-yl-5,6-dihydro-4H-pyrrolo[1,2-b]pyrazol-3-yl)-quinolin-7-yl]-piperazine-1-carboxylic Acid tert-Butyl Ester], at most 10000 nM. For the molecule `c1ccc(-c2nn3c(c2-c2ccnc4cc(N5CCCCC5)ccc24)CCC3)nc1` [Example 103, 7-Piperidin-1-yl-4-(2-pyridin-2-yl-5,6-dihydro-4H-pyrrolo[1,2-b]pyrazol-3-yl)-quinoline], the IC50 was at most 1000 nM. For `O=S1(=O)CCN(c2ccc3c(-c4c(-c5ccccn5)nn5c4CCC5)ccnc3c2)CC1` [Example 104, 7-(1,1-Dioxo-1λ^6-thiomorph-olin-4-yl)-4-(2-pyridin-2-yl-5,6-dihydro-4H-pyrrolo[1,2-b]pyrazol-3-yl)-quinoline] the value was at most 10000 nM; for `COC(=O)CCc1ccc(-c2ccc3c(-c4c(-c5ccccn5)nn5c4CCC5)ccnc3c2)cc1` [Example 106, 3-{4-[4-(2-pyridin-2-yl-5,6-dihydro-4H-pyrrolo[1,2-b]pyrazol-3-yl-)quinolin-7-yl]phenyl}propionic Acid Methyl Ester], at most 100 nM. With `NC(=O)CCc1ccc(-c2ccc3c(-c4c(-c5ccccn5)nn5c4CCC5)ccnc3c2)cc1` [Example 107, 3-{4-[4-(2-Pyridin-2-yl-5,6-dihydro-4H-pyrrolo[1,2-b]pyrazol-3-yl)quinolin-7-yl]phenyl}propionamide] the figure was at most 100 nM.

Regarding `CN(C)CCOc1ccc(-c2ccc3c(-c4c(-c5ccccn5)nn5c4CCC5)ccnc3c2)cc1` [Example 108, Dimethyl-(2-{4-[4-(2-Pyridin-2-yl-5,6-dihydro-4H-pyrrolo[1,2-b]pyrazol-3-yl)quinolin-7-yl]phenoxy}ethyl)amine Ditrifluoroacetic Acid], the half-maximal inhibitory concentration (IC50) is at most 100 nM. `c1ccc(-c2nn3c(c2-c2ccnc4cc(-c5ccc(OCCN6CCOCC6)cc5)ccc24)CCC3)nc1` [Example 109, 7-[4-(2-Morpholin-4-yl-ethoxy)phenyl]-4-(2-Pyridin-2-yl-5,6-dihydro-4H-pyrrolo[1,2-b]pyrazol-3-yl)quinoline Ditrifluoroacetic Acid]: the IC50 is at most 100 nM. For `c1ccc(-c2nn3c(c2-c2ccnc4cc(-c5ccc(OCCN6CCCCC6)cc5)ccc24)CCC3)nc1` [Example 110, 7-[4-(2-Piperidin-1-yl-ethoxy)phenyl]-4-(2-Pyridin-2-yl-5,6-dihydro-4H-pyrrolo[1,2-b]pyrazol-3-yl)quinoline Ditrifluoroacetic Acid], the IC50 was at most 100 nM. With `c1ccc(-c2nn3c(c2-c2ccnc4cc(-c5ccc(OCCN6CCCC6)cc5)ccc24)CCC3)nc1` [Example 111, 4-(2-Pyridin-2-yl-5,6-dihydro-4H-pyrrolo[1,2-b]pyrazol-3-yl)-7-[4-(2-pyrrolidin-1-yl-ethoxy)phenyl] quinoline Ditrifluoroacetic Acid] the figure was at most 100 nM. With `c1ccc(-c2nn3c(c2-c2ccnc4cc(-c5ccc(OCCCN6CCCCC6)cc5)ccc24)CCC3)nc1` [Example 112, 7-[4-(3-Piperdin-1-yl-propoxy)phenyl]-4-(2-Pyridin-2-yl-5,6-dihydro-4H-pyrrolo[1,2-b]pyrazol-3-yl)quinoline Ditrifluoroacetic Acid] the figure was at most 100 nM; with `CN(C)CCCOc1ccc(-c2ccc3c(-c4c(-c5ccccn5)nn5c4CCC5)ccnc3c2)cc1` [Example 113, Dimethyl-(3-{4-[4-(2-Pyridin-2-yl-5,6-dihydro-4H-pyrrolo[1,2-b]pyrazol-3-yl)quinolin-7-yl]phenoxy}propyl)amine Ditrifluoroacetic Acid], at most 100 nM; with `c1ccc(-c2nn3c(c2-c2ccnc4cc(-c5ccc(OCCCN6CCOCC6)cc5)ccc24)CCC3)nc1` [Example 114, 7-[4-(3-Morpholin-4-yl-propoxy)phenyl]-4-(2-Pyridin-2-yl-5,6-dihydro-4H-pyrrolo[1,2-b]pyrazol-3-yl)quinoline Ditrifluoroacetic Acid], at most 100 nM.

With `c1ccc(-c2nn3c(c2-c2ccnc4cc(-c5ccc(OCCCN6CCCC6)cc5)ccc24)CCC3)nc1` [Example 115, 4-(2-Pyridin-2-yl-5,6-dihydro-4H-pyrrolo[1,2-b]pyrazol-3-yl)-7-[4-(3-pyrrolidin-1-yl-propoxy)phenyl] quinoline Ditrifluoroacetic Acid], the IC50 is at most 100 nM.

With `NC(=O)COc1ccc(-c2ccc3c(-c4c(-c5ccccn5)nn5c4CCC5)ccnc3c2)cc1` [Example 117, 2-{4-[4-(2-Pyridin-2-yl-5,6-dihydro-4H-pyrrolo[1,2-b]pyrazol-3-yl)quinolin-7-yl]phenoxy}acetamide Trifluoroacetic Acid], the IC50 is at most 100 nM. For `COCCOc1ccc(-c2ccc3c(-c4c(-c5ccccn5)nn5c4CCC5)ccnc3c2)cc1` [Example 118] the value was at most 100 nM; for `FCCOc1ccc(-c2ccc3c(-c4c(-c5ccccn5)nn5c4CCC5)ccnc3c2)cc1` [Example 119, 7-[4-(2-Fluoroethoxy)phenyl]-4-(2-pyridin-2-yl-5,6-dihydro-4H-pyrrolo[1,2-b]pyrazol-3-yl)quinoline Trifluoroacetic Acid], at most 100 nM; for `FC(F)(F)COc1ccc(-c2ccc3c(-c4c(-c5ccccn5)nn5c4CCC5)ccnc3c2)cc1` [Example 120, 4-(2-Pyridin-2-yl-5,6-dihydro-4H-pyrrolo[1,2-b]pyrazol-3-yl)-7-[4-(2,2,2-trifluoroethoxy)phenyl)quinoline Trifluoroacetic Acid], at most 100 nM. Take `CC(C)(C)OC(=O)NCCNC(=O)c1ccc(-c2ccc3c(-c4c(-c5ccccn5)nn5c4CCC5)ccnc3c2)cc1` [Example 121, (2-{4-[4-(2-Pyridin-2-yl-5,6-dihydro-4H-pyrrolo[1,2-b]pyrazol-3-yl)-quinolin-7-yl]-benzoylamino}-ethyl)-carbamic Acid tert-Butyl Ester]: the half-inhibitory concentration (IC50) was at most 100 nM.
